Starred links: 1 amine or outer side, 2 acyl side, 3 side chain; linkers in the order of their positions; H or OH if unused. Non-standard residues stand in square brackets, D forms with d. Residues, ends and D or L forms follow the SMILES beside them. *: point of attachment. X1 = CCC(=O)CCCCC[C@H](N[*:1])C(=O)[*:2]; Asu = N[C@@H](CCCCCC(=O)O)C(=O)O; NHOH = ON*
Assays:
various HDACs = system: various HDACs; set-up: method as in PMID 25738536; conditions: FDA approved HDAC inhibitors; cited from earlier work
HDAC1-MTA1-RBBP4 = HDAC1-MTA1-RBBP4 (Homo sapiens, UniProt Q09028+Q13330+Q13547); experiment: Fluorescence-based HDAC inhibition assay (BOC-Lys-AMC substrate); assay type: biochemical; conditions: 50 nM HDAC1-MTA1-RBBP4, 30 min at 37 °C
Procedure: SPIs 11–14 were assessed in a fluorescence-based inhibition assay to determine potency as HDAC inhibitors (Table 2). […] The lower activity of SPIs 12–13 can be attributed to the lower zinc binding affinity of ketones. In the future these amino acids will be incorporated in various histone tails to generate a library to identify important binding interactions through additional crystal structure studies. The cell permeability of these peptides will also be investigated to determine their usefulness as cellular probes.
HDAC activity was measured by using fluorescent BOC-Lys-AMC substrate in a black 96-well format. 50 nM HDAC1-MTA1-RBBP4 was incubated with inhibitor and 100 µM BOC-Lys-AMC substrate for 30 min at 37 °C in a final volume of 50 µl (50 mM Tris pH 7.5, 150 mM NaCl, 5% Glycerol). The assay was developed by the addition of 50 µl of developer solution (2 µM TSA, 10 mg ml -1 Trypsin, 50 mM Tris pH 7.5, 100 mM NaCl). Fluorescence was measured at 335/460 nm using a Victor X5 plate reader (Perkin Elmer). All measurements were performed in triplicate and data analysed using GraphPad Prism (version 7.0, GraphPad Software, Inc). In the case of titrations IC50 values were calculated by nonlinear curve fitting with a one-site binding (hyperbola) model (Y=Bmax*X/(Kd+X).
Sequence Yield Purity IC50 Retention time Peptide content
(1 picture or pasted object on this page, not shown here)

class I HDAC = conditions: cited from earlier work
Excerpt: These inhibitors function by coordinating with the HDAC active site zinc through a side chain that has zinc binding properties such as a hydroxamic acid or ethyl ketone.

Sequence of HDAC1-MTA1-RBBP4 (Q13547 whole entry): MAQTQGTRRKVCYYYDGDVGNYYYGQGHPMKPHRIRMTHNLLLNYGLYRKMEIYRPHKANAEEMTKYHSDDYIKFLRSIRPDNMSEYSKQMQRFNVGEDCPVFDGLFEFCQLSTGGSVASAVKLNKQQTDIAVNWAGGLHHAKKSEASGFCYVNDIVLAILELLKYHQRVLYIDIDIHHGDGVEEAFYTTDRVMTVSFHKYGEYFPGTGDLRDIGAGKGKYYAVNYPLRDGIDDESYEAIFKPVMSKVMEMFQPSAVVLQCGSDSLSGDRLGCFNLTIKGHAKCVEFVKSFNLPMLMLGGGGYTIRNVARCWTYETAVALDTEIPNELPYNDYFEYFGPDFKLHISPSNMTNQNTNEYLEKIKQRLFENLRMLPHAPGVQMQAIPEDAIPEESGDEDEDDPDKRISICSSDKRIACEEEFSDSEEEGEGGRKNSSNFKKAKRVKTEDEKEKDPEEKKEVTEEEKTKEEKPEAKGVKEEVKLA
Sequence of HDAC1-MTA1-RBBP4 (Q13330 whole entry partner): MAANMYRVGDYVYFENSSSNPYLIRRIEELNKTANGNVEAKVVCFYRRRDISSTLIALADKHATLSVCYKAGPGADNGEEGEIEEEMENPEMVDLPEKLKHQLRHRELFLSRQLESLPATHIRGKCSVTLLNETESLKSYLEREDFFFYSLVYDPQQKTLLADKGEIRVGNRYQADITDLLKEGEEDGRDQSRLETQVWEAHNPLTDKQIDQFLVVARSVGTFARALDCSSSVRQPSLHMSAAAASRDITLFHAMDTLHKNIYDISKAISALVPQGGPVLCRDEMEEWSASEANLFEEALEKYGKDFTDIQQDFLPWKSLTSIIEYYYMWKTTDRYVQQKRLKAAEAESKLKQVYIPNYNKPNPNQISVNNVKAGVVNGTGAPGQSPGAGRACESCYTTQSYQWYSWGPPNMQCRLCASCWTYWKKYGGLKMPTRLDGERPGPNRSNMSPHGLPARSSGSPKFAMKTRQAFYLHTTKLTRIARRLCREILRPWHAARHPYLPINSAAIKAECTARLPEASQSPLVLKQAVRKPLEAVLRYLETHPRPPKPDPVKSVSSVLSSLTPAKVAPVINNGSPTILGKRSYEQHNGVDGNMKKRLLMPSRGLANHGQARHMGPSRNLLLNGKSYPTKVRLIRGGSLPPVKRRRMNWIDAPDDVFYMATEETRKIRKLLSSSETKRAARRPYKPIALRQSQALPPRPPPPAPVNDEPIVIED
Sequence of HDAC1-MTA1-RBBP4 (Q09028 whole entry partner): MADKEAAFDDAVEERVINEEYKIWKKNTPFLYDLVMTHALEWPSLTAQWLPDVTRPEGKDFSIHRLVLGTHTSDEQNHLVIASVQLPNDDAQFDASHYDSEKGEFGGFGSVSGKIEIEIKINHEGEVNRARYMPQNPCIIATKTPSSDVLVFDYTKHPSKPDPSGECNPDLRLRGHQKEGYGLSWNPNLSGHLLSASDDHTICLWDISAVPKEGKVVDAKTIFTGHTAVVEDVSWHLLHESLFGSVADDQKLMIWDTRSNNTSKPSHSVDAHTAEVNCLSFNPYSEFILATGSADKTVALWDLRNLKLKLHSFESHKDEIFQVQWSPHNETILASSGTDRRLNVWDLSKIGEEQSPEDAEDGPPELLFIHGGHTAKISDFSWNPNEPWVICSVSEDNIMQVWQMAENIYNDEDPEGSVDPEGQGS

Molecule | HDAC specificity, result in words (various HDACs) | other results
O=C(/C=C/c1cccc(S(=O)(=O)Nc2ccccc2)c1)NO [Belinostat] | nonspecific across various HDACs | –
Cc1[nH]c2ccccc2c1CCNCc1ccc(/C=C/C(=O)NO)cc1 [Panobinostat] | nonspecific across various HDACs | –
CC(=O)N[C@@H](CCCCN)C(=O)N[C@@H](C)C(=O)N[C@@H](C)C(=O)N[C@@H](CCCNC(=N)N)C(=O)N[C@@H](CCCCCC(=O)NO)C(=O)N[C@@H](CO)C(=O)N[C@@H](C)C(N)=O [SPI 11] (Ac-KAAR[Asu](NHOH)SA-NH2) | – | HDAC inhibition, result in words (HDAC1-MTA1-RBBP4; BOC-Lys-AMC substrate, pH 7.5, tested concentration not given): comparable to our previously reported SPI based on the H4 peptide sequence
CCC(=O)CCCCC[C@H](NC(=O)[C@H](CCCNC(=N)N)NC(=O)[C@H](C)NC(=O)[C@H](C)NC(=O)[C@H](CCCCN)NC(C)=O)C(=O)N[C@@H](CO)C(=O)N[C@@H](C)C(N)=O [SPI 12] (Ac-KAAR[X1]SA-NH2) | – | IC50 (HDAC1-MTA1-RBBP4; 100 M BOC-Lys-AMC substrate (so in the source), 50 mM Tris pH 7.5, 150 mM NaCl, 5% Glycerol, developer TSA/Trypsin, fluorescence 335/460 nm, triplicate, one-site binding fit, unit printed µM in SI): 17 µM
O=C(CCCCCCC(=O)Nc1ccccc1)NO [Vorinostat] | nonspecific across various HDACs | –
Apicidin A | – | HDAC inhibition, result in words (class I HDAC): class I selective HDAC inhibition in the nanomolar range
Romidepsin | nonspecific across various HDACs | –
